According to patent publication US11090308B2, “Methods of treating liver disorders or lipid disorders with a THR-beta agonist” (Madrigal Pharmaceuticals, Inc., priority 2016, dated 2021):
Read-outs that look alike come from different tables or passages of the source.

Experiments:
Format in all cases: in vitro ADME
CYP2C9 = CYP2C9 (Homo sapiens, UniProt P11712); test: In vitro Cytochrome P-450 enzyme assay, CYP2C9; conditions: for IC50: read-out: Inhibitor of: CYP2C9, IC50
CYP2B6 = biological target: T1, CYP2B6 (Homo sapiens, UniProt P20813); test: In vitro Cytochrome P-450 enzyme assay, CYP2B6
T1 sequence (P20813 1-491): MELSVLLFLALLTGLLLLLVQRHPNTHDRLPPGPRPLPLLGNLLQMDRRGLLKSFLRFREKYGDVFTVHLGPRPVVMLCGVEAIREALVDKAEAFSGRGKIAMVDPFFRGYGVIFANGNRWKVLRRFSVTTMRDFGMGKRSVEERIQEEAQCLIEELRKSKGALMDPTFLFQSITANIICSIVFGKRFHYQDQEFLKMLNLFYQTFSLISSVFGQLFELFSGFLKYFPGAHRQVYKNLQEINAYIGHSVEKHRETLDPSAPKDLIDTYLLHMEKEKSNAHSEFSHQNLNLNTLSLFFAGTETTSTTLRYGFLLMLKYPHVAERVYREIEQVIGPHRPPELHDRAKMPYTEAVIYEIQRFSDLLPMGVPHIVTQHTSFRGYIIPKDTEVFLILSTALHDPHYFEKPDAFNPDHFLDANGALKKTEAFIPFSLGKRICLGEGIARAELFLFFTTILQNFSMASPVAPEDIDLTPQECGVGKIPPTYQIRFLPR
Description: (§1) The following studies have been conducted: (a) in vitro drug protein binding, transporter (organic anion transporting polypeptide [OATP], P-glycoprotein [P-gp], breast cancer-related protein [BCRP], and multiple drug resistance protein 1 [MDR1]), and cytochrome P-450 enzyme assays to investigate absorption, distribution, and excretion; (b) in vivo MGL-3196 rat and dog oral PK and bioavailability studies; (c) in vivo ^14C-MGL-3196 rat and dog oral pharmacokinetics, absorption, excretion, and tissue distribution by quantitative whole-body autoradiography (QWBA) studies; and (d) liver disposition of MGL-3196 using an in vitro sandwiched hepatocyte model system (B-CLEAR® technology) in dog (SCDH) and human (SCHH) hepatocytes.

[1] = tested on: sandwich-cultured dog hepatocytes (SCDH); test: Hepatobiliary disposition in sandwich-cultured dog hepatocytes (SCDH)
Description: as §1
Parameters determined: • Bile Accumulation=Total Accumulationplus(+)Buffer−Cellular AccumulationMinus(−)Buffer
[formula] • AUC=(Incubation Time)*(Analyte ConcentrationMedia) • In vitro biliary clearance:
[formula] • (Kp ratio reflects the extent of MGL-3196 accumulation in hepatocyte to the total MGL-3196 concentration in the buffer, outside of the hepatocyte).
MGL-3196 and its metabolite, MGL-3196-M1 (M1), were evaluated in sandwich-cultured human hepatocytes (SCHH) to evaluate the effects of temperature and concentration on total accumulation. Incubations were performed in presence of 4% bovine serum albumin (BSA) for 20 minutes at 37° C. and 4° C. across multiple concentrations (3, 10, 30, and 100 μM). Following the hepatic accumulation study, a species comparison of the hepatobiliary disposition of MGL-3196 (30 μM) and its metabolite, M1, was evaluated in SCHH and sandwich-cultured dog hepatocytes (SCDH) in the presence of 4% BSA.

OATP1B3 = biological target: T2, OATP1B3 (Homo sapiens, UniProt Q9NPD5); test: In vitro drug transporter assay, OATP1B3
T2 sequence (Q9NPD5 1-702): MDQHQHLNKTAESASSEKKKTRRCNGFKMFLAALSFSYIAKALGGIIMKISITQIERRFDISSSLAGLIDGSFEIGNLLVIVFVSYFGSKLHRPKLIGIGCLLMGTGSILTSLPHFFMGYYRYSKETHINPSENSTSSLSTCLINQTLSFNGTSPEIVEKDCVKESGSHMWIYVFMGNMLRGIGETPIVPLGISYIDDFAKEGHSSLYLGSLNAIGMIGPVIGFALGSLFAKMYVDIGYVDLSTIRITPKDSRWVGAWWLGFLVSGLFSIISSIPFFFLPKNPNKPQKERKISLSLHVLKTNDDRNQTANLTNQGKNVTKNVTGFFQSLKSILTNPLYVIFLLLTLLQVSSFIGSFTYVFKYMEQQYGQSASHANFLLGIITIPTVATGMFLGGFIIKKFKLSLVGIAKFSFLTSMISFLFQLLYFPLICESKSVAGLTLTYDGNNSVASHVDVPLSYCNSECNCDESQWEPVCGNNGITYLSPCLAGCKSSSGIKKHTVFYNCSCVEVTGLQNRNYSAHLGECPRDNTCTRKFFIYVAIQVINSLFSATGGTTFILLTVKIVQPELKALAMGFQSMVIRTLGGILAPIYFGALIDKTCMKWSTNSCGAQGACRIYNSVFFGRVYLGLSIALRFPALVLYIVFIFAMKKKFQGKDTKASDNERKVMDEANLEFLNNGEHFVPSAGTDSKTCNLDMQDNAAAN
Description: as §1

CYP1A2 = biological target: T3, CYP1A2 (Homo sapiens, UniProt P05177); test: In vitro Cytochrome P-450 enzyme assay, CYP1A2
T3 sequence (P05177 1-516): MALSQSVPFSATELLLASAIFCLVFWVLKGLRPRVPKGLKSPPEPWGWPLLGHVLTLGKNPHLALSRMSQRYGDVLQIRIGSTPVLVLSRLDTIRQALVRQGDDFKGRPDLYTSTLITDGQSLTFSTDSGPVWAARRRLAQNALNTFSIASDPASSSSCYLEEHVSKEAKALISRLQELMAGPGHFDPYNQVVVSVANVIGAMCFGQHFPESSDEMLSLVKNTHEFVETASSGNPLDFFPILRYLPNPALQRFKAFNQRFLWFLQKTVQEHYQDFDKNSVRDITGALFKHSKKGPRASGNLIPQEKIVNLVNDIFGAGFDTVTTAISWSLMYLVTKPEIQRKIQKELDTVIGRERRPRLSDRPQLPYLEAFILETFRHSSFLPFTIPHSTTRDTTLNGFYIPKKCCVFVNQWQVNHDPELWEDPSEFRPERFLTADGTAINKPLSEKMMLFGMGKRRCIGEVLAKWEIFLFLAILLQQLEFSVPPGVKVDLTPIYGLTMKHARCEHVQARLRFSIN
Description: as §1

[2] = SCDH, 20 min exposure to MGL-3196 30 μM, 4% BSA

CYP2C9, sequence (P11712 whole entry): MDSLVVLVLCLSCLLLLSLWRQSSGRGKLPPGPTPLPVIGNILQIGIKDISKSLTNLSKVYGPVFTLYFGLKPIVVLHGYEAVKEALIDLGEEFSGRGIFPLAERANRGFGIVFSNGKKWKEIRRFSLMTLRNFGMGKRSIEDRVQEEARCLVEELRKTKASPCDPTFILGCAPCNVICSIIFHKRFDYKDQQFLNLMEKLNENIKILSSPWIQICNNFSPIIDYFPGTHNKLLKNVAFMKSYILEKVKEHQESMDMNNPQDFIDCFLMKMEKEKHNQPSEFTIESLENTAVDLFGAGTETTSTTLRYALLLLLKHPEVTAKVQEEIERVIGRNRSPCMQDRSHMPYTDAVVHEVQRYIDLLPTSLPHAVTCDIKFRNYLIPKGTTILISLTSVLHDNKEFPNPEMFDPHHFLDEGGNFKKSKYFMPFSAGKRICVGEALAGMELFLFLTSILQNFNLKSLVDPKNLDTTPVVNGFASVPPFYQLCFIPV

**Q.** For `CC(C)c1cc(Oc2c(Cl)cc(-n3nc(C#N)c(=O)[nH]c3=O)cc2Cl)n[nH]c1=O` [MGL-3196, 2-(3,5-dichloro-4-((5-isopropyl-6-oxo-1,6-dihydropyridazin-3-yl)oxy)phenyl)-3,5-dioxo-2,3,4,5-tetrahydro-1,2,4-triazine-6-carbonitrile], which “Substrate for: CYP2C9” value (CYP2C9) is on record?
**A.** Its value is “CYP2C9;”.

**Q.** And the IC50 (CYP2C9)?
**A.** Its IC50 is 22 µM.

**Q.** And the “Inhibitor of: CYP2B6” value (CYP2B6)?
**A.** Its value is “not an inhibitor”.

**Q.** And the “Total accumulation in SCDH lower than in SCHH” value ([1]; 30 μM, 20-minute exposure)?
**A.** Its value is about 81%.

**Q.** What about the “biliary clearance estimates lower in dog than human hepatocytes” value ([1]; SCDH vs SCHH) of the same molecule?
**A.** Its value is about 46%.

**Q.** What about the “BEI (Biliary Excretion Index)” value [1, 2] of the same molecule?
**A.** The value was 48.7%.

**Q.** What about the “Bile Acc.” value [1, 2] of the same molecule?
**A.** Its value is 86.2 pmol/mg.

**Q.** And the “Cellular Acc.” value [1, 2]?
**A.** The value was 80.3 pmol/mg.

**Q.** And the “ClBiliary (in vitro biliary clearance)” value [1, 2]?
**A.** The value was 0.784 mL/min/kg.

**Q.** What about the “ICC (intracellular concentration)” value [1, 2] of the same molecule?
**A.** The value was 10.4 µM.

**Q.** And the Kp [1, 2]?
**A.** The Kp was 0.348 Ratio.

**Q.** What about the “Total Acc.” value [1, 2] of the same molecule?
**A.** The value was 167 pmol/mg.

**Q.** What about the “Substrate for: OATP1B3” value (OATP1B3) of the same molecule?
**A.** Its value is “OATP1B3;”.

**Q.** And the “Inhibitor of: OATP1B3, % inhibition” value (OATP1B3; @ 10 uM Pravastatin)?
**A.** The value was “OATP1B3 (57% @ 10 uM Pravastatin)”.

**Q.** And the “Inhibitor of: CYP1A2” value (CYP1A2)?
**A.** The value was “not an inhibitor”.

**Q.** What does the source list for `CC(CO)c1cc(Oc2c(Cl)cc(-n3nc(C#N)c(=O)[nH]c3=O)cc2Cl)n[nH]c1=O` (centres unmarked) [MGL-3623]?
**A.** IC50 (CYP2C9; range given jointly for CYP2B6, CYP2C9, CYP2C19, weak): 24 to 35 µM; IC50 (CYP2B6; range given jointly for CYP2B6, CYP2C9, CYP2C19, weak, read-out: Inhibitor of: CYP2B6, IC50): 24 to 35 µM; Cellular Acc. [1, 2]: BLQ; PIS (post incubation supernatant, cell culture media) [1, 2]: BLQ; Total Acc. [1, 2]: BLQ; Substrate for: OATP1B3 (OATP1B3): OATP1B3; IC50 (OATP1B3; weak, read-out: Inhibitor of: OATP1B3, IC50): 22.6 µM; IC50 (CYP1A2; read-out: Inhibitor of: CYP1A2, IC50): > 50 µM
